Measured values as given in publication PMC8426472 (Molecular Therapy. Methods & Clinical Development, 2021).

Experiments:
[1] = Plasma Mfp levels in rats; type: in vivo, rat
[2] = cited from earlier work
[3] = Brain Mfp levels in cynomolgus monkeys; type: in vivo, cynomolgus macaques (Macaca fascicularis); settings: monkey #1 versus monkeys #2 and #3, repeated oral Rtv 60 mg/kg + Mfp 100 mg/kg
ORM1F2 = settings: cited from earlier work
[4] = Brain tissue Mfp levels in rats; type: in vivo, rat; settings: 3 × 20 mg/kg i.p., t = 144 h
[5] = Plasma Mfp levels in cynomolgus monkeys; type: in vivo, cynomolgus macaques (Macaca fascicularis)
[6] = cited from earlier work; remark: listed apart in the source
[7] = test system: ORM2-derived AAG variants; settings: cited from earlier work
[8] = cited from earlier work; remark: listed apart in the source
[9] = cited from earlier work; remark: listed apart in the source
ORM1F1 = settings: cited from earlier work
GS-GDNF vector = experiment: Striatal GDNF induction from AAV-5-GS-GDNF vector after Mfp application; type: in vivo, rat
ORM1S = settings: cited from earlier work
[10] = Plasma Mfp levels in hAAG-expressing; type: in vivo, rat
[11] = cited from earlier work; remark: listed apart in the source

In the case of `CC#C[C@]1(O)CC[C@H]2[C@@H]3CCC4=CC(=O)CCC4=C3[C@@H](c3ccc(N(C)C)cc3)C[C@@]21C` [Mfp, mifepristone], the AUC ([1]; female, Wistar, rat, plasma, ip, AUC for plasma Mfp, − Rtv, female rats, 3 x 5 mg/kg Mfp i.p., without Rtv) is reported as 8200 ng·h/mL, the “drop of plasma Mfp levels at 48 h, native rats” value ([1]; native rats, single oral dose 50 mg/kg) is reported as “over 80%” and the peak plasma levels ([1]; rats, 3 × 5 mg/kg Mfp i.p.) is reported as “about 150 ng/mL”. The “peak plasma levels, corresponding molar concentration” value ([1]; rats, 3 × 5 mg/kg Mfp i.p.) was “about 0.3 μM”, the solubility in water [2] was “very low” and the “difference in brain Mfp levels after the same dosage” value [3] was 6- to 7 fold. For the same molecule, the “binding of Mfp by ORM1F2” value (ORM1F2) was “only low affinity”, the “Mfp levels in brain tissue, native vs hAAG-expressing animals” value [4] was “equal” and the “peak plasma Mfp level without Rtv” value ([5]; male cynomolgus monkeys, single oral 50 mg/kg Mfp) was 55 ng/mL. The “peak plasma Mfp level with Rtv co-application” value ([5]; male cynomolgus monkeys, single oral 50 mg/kg Mfp + 30 mg/kg Rtv) was 150 ng/mL, the AUC ([5]; male, cynomolgus monkey, plasma, po, 50 mg/kg) was 655 ng·h/mL and the “plasma Mfp levels on all 3 days” value ([5]; monkeys #2 and #3, oral Mfp 100 mg/kg + Rtv 60 mg/kg on 3 consecutive days) was “exceeding 500 ng/mL”. The bioavailability in humans [6] was 40%, the clearance in human [6] was 0.04 L/h/kg body weight and the “plasma half-life (T1/2) in human” value [6] was 30 h. For the same molecule, the “binding of Mfp by ORM2-derived AAG variants” value [7] was “only weakly”, the bioavailability in rats [8] was 40% and the clearance in rats [8] was 2.7 L/h/kg body weight. The “plasma half-life (T1/2) in rats” value [8] was 4 h, the bioavailability in monkeys [9] was 15% and the “binding of Mfp by ORM1F1” value (ORM1F1) was “high affinity”. The “effect of hAAG on GS-GDNF activation at lower dosage” value (GS-GDNF vector; 3 × 5 mg/kg Mfp i.p., hAAG-expressing vs native rats) was “no negative effect”, the “striatal GDNF levels in hAAG-expressing vs native animals” value (GS-GDNF vector; 3 × 20 mg/kg Mfp i.p.) was “similar” and the “induced GDNF levels in aged (15 months) as compared to young (2 months) animals” value (GS-GDNF vector; female and male rats, 3 × 20 mg/kg Mfp i.p.) was 7–8 times. For the same molecule, the “striatal GDNF level, only Mfp, females” value (GS-GDNF vector; female rats, 3 x 5 mg/kg Mfp i.p., no Rtv) was “about 350 pg/mg”, the “striatal GDNF level without Rtv co-application” value (GS-GDNF vector; female rats, 3 x 20 mg/kg Mfp i.p.) was “about 2,000 pg/mg tissue” and the “striatal GDNF level after co-application of Rtv” value (GS-GDNF vector; female rats, 3 x 20 mg/kg Mfp i.p., Rtv 30 mg/kg i.p. or orally) was “about 4,000 pg/mg tissue”. The “GDNF levels obtained with different solvent/carrier” value (GS-GDNF vector; female rats, oral 3 x 50 mg/kg pure substance in EtOH, sesame oil or ASV) was “very similar”, the “striatal GDNF level, Mfp + Rtv” value (GS-GDNF vector; male and female rats, 3 x 5 mg/kg Mfp i.p. + Rtv 30 mg/kg i.p.) was “about 4,000 pg/mg tissue” and the “striatal GDNF level, only Mfp, males” value (GS-GDNF vector; male rats, 3 x 5 mg/kg Mfp i.p., no Rtv) was “about 100 pg/mg”. The “binding of Mfp by ORM1S” value (ORM1S) was “high affinity”, the “plasma Mfp levels in hAAG-expressing vs native animals at 50 h and 72 h” value ([10]; 3 × 20 mg/kg Mfp i.p.) was “significantly elevated” and the “plasma Mfp level at 48 h, hAAG-expressing rats” value ([10]; single oral dose 50 mg/kg) was “still at maximum level”. The “plasma Mfp level at 72 h, hAAG-expressing rats” value ([10]; single oral dose 50 mg/kg) was “about one-third of maximum levels”.

For `CC(C)c1nc(CN(C)C(=O)N[C@H](C(=O)N[C@@H](Cc2ccccc2)C[C@H](O)[C@H](Cc2ccccc2)NC(=O)OCc2cncs2)C(C)C)cs1` [Rtv, ritonavir], the “metabolic effects: insulin resistance” value [11] is listed as “moderate increase”, the “boost of GDNF induction by Rtv, female rats” value (GS-GDNF vector; female rats, Rtv 30 mg/kg i.p. + 3 x 5 mg/kg Mfp i.p.) is listed as “about 10 fold” and the “boost of GDNF induction by Rtv, male rats” value (GS-GDNF vector; male rats, Rtv 30 mg/kg i.p. + 3 x 5 mg/kg Mfp i.p.) is listed as “about 40 fold”.
